Experimental data: ChEMBL document CHEMBL1201862, “PubChem BioAssay data set” (2004)
Calls of active or inactive are those of the source.

Columns and labels:
[1] = biological target: T1, Apoptotic protease-activating factor 1 (Homo sapiens, UniProt O14727); format: functional
T1 sequence (O14727 whole entry): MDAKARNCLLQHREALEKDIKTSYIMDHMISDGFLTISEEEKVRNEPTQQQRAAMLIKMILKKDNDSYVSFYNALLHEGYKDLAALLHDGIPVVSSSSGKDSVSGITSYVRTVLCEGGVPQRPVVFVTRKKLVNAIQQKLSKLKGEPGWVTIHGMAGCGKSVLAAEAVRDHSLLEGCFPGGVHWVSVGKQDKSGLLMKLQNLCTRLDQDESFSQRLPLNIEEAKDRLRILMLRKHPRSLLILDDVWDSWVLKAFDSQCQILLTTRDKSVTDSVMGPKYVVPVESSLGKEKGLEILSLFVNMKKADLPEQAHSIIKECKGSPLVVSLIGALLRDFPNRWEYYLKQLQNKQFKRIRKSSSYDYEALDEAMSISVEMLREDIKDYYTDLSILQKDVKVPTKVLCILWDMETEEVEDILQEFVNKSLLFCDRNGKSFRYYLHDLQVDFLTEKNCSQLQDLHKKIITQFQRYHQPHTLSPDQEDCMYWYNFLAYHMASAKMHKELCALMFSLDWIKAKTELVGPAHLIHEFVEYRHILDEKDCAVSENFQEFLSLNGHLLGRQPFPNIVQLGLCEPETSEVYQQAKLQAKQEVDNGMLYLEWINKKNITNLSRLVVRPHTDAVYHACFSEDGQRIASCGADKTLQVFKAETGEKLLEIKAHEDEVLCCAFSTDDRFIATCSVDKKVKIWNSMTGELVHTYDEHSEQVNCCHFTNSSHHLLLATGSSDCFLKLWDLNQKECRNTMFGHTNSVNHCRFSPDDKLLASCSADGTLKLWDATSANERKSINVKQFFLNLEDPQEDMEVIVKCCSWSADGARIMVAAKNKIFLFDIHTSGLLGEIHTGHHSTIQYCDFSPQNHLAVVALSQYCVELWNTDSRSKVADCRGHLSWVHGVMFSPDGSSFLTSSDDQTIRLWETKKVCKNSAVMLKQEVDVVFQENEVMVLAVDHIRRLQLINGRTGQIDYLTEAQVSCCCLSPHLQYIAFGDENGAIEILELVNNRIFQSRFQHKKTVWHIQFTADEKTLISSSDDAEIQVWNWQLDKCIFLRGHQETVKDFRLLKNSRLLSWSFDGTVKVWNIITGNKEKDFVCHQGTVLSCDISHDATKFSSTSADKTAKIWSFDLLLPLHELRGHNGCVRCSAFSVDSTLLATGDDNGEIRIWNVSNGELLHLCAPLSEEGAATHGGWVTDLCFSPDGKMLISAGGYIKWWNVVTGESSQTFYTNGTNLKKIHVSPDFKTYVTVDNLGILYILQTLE

[2] = biological target: T2, 1-phosphatidylinositol 4,5-bisphosphate phosphodiesterase gamma-1 (Homo sapiens, UniProt P19174); test: Counterscreen for inhibitors of phospholipase C isozymes (PLC-B3): Fluorescence-based biochemical high throughput dose response assay to identify inhibitors of phospholipase C isozymes (PLC-gamma1).
T2 sequence (P19174 whole entry): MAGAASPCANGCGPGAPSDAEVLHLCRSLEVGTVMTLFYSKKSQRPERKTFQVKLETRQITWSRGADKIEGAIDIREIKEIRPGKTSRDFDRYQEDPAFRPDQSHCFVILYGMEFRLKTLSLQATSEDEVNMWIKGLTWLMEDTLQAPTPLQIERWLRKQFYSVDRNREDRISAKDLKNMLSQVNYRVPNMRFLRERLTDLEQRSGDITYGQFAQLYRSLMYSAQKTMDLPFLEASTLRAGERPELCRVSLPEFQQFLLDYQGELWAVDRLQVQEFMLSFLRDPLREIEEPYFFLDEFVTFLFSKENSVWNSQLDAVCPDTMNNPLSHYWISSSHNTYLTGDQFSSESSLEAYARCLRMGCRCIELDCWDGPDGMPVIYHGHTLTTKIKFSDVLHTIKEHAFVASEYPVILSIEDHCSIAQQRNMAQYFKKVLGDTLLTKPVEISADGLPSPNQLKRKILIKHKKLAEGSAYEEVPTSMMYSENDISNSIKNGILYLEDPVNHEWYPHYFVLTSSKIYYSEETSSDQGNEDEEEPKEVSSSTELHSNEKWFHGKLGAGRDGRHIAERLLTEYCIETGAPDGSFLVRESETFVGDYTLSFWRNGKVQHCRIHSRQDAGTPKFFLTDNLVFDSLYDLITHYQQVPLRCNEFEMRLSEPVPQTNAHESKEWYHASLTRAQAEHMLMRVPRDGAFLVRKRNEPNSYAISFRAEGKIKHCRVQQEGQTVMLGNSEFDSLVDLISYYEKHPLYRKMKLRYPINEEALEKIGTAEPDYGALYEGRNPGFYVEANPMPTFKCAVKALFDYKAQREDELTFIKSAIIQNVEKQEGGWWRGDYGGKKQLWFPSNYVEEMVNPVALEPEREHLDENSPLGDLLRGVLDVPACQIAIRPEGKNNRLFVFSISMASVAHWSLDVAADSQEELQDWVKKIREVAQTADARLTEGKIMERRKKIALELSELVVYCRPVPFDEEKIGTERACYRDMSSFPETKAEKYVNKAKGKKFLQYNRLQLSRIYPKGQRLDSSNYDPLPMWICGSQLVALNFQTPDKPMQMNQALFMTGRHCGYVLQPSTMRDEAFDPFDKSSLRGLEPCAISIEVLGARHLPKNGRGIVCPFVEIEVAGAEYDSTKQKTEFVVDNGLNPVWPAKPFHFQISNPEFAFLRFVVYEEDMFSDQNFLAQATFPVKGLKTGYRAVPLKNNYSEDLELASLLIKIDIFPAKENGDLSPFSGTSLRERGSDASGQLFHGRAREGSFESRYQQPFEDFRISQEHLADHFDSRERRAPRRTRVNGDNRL

Nonstructural protein 1 = Nonstructural protein 1 (Influenza A virus, UniProt Q194T2); format: functional, Influenza A virus (A/California/07/2009(H1N1))
Nonstructural protein 1, sequence (Q194T2 whole entry, the tested form may be a part): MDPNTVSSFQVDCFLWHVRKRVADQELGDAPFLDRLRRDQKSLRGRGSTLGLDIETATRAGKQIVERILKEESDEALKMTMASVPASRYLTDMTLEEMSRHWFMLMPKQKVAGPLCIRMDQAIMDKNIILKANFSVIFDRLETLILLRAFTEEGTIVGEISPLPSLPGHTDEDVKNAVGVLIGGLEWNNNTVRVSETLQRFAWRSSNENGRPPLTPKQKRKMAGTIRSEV

[3] = biological target: T3, RNA-binding protein pos-1 (Caenorhabditis elegans, UniProt G5EF15); test: disruptors of C. elegans POS-1 RNA interaction – biochemical, fluorescence polarization, dose response (AID 1964);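 also: purified POS-1 fused to maltose binding protein made in E. coli; potency of compounds blocking POS-1 binding to fluorescent RNA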
T3 sequence (G5EF15 whole entry): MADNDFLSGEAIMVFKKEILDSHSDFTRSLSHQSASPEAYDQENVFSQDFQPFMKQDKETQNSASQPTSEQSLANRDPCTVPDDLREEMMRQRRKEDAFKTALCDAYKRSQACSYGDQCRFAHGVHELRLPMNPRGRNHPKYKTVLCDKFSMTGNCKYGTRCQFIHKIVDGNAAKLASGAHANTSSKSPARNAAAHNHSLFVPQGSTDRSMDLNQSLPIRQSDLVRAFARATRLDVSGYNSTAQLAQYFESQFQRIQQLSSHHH

Albumin = Albumin (Bos taurus, UniProt P02769); test: Counterscreen for inhibitors of T-cell receptor (TCR)-CD3 interaction: Fluorescence-based biochemical high throughput dose response assay to identify inhibitors of T-cell receptor (TCR)-CD3 interaction using a TAMRA-labeled BSA probe.; format: functional
Albumin, sequence (P02769 whole entry): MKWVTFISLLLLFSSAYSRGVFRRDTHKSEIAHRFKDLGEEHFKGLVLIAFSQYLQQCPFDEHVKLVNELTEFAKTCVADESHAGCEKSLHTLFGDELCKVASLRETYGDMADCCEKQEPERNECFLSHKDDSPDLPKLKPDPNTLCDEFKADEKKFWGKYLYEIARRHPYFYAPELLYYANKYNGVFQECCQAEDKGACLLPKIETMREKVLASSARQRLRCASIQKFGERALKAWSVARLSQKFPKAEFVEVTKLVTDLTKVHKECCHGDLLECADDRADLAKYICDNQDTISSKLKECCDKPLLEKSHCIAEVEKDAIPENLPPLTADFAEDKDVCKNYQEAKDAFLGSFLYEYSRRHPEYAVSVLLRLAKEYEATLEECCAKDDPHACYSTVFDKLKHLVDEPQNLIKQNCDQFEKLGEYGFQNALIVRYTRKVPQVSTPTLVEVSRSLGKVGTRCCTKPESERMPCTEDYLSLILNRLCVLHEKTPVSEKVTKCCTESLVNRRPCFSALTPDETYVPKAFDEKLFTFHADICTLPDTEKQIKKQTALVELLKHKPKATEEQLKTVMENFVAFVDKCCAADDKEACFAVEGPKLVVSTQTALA

SMILES	IC50 [1]	IC50 [2]	IC50 (Nonstructural protein 1)	EC50 [3]	IC50 (Albumin)
COC(=O)c1ccc(-c2ccc(C(c3c(C)[nH][nH]c3=O)c3c(C)[nH][nH]c3=O)o2)cc1	23.9 µM (active)	–	–	–	–
Oc1ccc(/C=N/NC(=S)Nc2cccnc2)c(O)c1O	–	> 122 µM (inactive)	3.58 µM (active)	71.4 µM (active)	> 94.1 µM (inactive)
